Data taken from patent US4368325A, “Processes for preparing 3-cephem compounds” (Fujisawa Pharmaceutical Co., Ltd., priority 1980, dated 1983).
In brackets after ≈: the same amount, converted by molar mass.

Assays:
Assay in all cases: In vitro antibacterial activity, two-fold agar-plate dilution method
Type in all cases: cell-based
[1] = system: Pseudomonus aeruginosa NCTC-10490; conditions: HI-agar, 37° C., 20 hours, 100-fold dilution of overnight culture, read-out: minimal inhibitory concentration (MIC)
Method: (§1) In vitro antibacterial activity was determined by the two-fold agar-plate dilution method as described below. One loopful of the 100-fold dilution of an overnight culture of each test strain in Trypticasesoy broth was streaked on heart infusion agar (HI-agar) containing graded concentrations of the test compound and incubated at 37° C. for 20 hours. The minimal inhibitory concentration (MIC) was expressed in μg/ml.

[2] = system: Proteus vulgaris IAM-1025; conditions: IAM1025, HI-agar, 37° C., 20 hours, 100-fold dilution of overnight culture, read-out: minimal inhibitory concentration (MIC)
Method: as §1

[3] = system: Staphylococcus aureus 209P JC-1; conditions: HI-agar, 37° C., 20 hours, 100-fold dilution of overnight culture, read-out: minimal inhibitory concentration (MIC)
Method: as §1

[4] = system: Escherichia coli. NIHJ JC-2; conditions: NIHJJC2, HI-agar, 37° C., 20 hours, 100-fold dilution of overnight culture, read-out: minimal inhibitory concentration (MIC)
Method: as §1

Klebsiella pneumoniae 20 = conditions: HI-agar, 37° C., 20 hours, 100-fold dilution of overnight culture, read-out: minimal inhibitory concentration (MIC)
Method: as §1

Proteus mirabilis 18 = conditions: HI-agar, 37° C., 20 hours, 100-fold dilution of overnight culture, read-out: minimal inhibitory concentration (MIC)
Method: as §1

Serratia marcescens 35 = conditions: HI-agar, 37° C., 20 hours, 100-fold dilution of overnight culture, read-out: minimal inhibitory concentration (MIC)
Method: as §1

MIC [1]: 0.39 µg/mL (≈ 1.02 µM)
MIC [2]: ≤ 0.025 µg/mL
MIC [3]: 6.25 µg/mL (≈ 16.3 µM)
MIC [4]: ≤ 0.025 µg/mL
MIC (Klebsiella pneumoniae 20): ≤ 0.025 µg/mL
MIC (Proteus mirabilis 18): ≤ 0.025 µg/mL
MIC (Serratia marcescens 35): 1.56 µg/mL (≈ 4.07 µM)
SMILES: CO/N=C(\C(=O)NC1C(=O)N2C(C(=O)O)=CCSC12)c1csc(N)n1 (stereo not drawn) [7-[2-(2-aminothiazol-4-yl)-2-methoxyiminoacetamido]-3-cephem-4-carboxylic acid (syn isomer)]
